Laboratory results reported in paper PMC11396129, “Oxindole–benzothiazole hybrids as CDK2 inhibitors and anticancer agents: design, synthesis and biological evaluation” (BMC Chemistry, 2024).

Key:
[1] = tested on: DU145 prostate cancer cell line; experiment: Apoptosis assay (Annexin V-FITC/PI flow cytometry); format: cell-based, human; conditions: DU145, 9o at its GI50 concentration, 48h
Description: (§1) DU145 cancer cell line derived from prostate cancer was treated with the oxindole–benzothiazole conjugate 9o at its GI50. This was followed by treatment of cells according to the reported procedure and the percentage of cells in each stage of the cell cycle was identified and the percentage of cells in the apoptotic and necrotic stages were detected (for further details see additional file 1: analysis of cell cycle distribution; apoptosis assay).
(§2) 6. Analysis of cell cycle distribution
(§3) DU-145: Prostate cancer was obtained from Nawah Scientific Inc., (Mokatam, Cairo, Egypt).
Cells were maintained in DMEM media supplemented with […] of streptomycin, 100 units/mL of penicillin and 10% of heat-inactivated fetal bovine serum in humidified, 5% (v/v) […]
CO2 atmosphere at 37 °C. […]
Apoptosis and necrosis cell populations are determined using Annexin V-FITC apoptosis detection kit (Abcam Inc., Cambridge Science Park, Cambridge, UK) coupled with 2 fluorescent channels flowcytometry. After treatment with test compounds for 48h, cells (10^5 cells) are collected by trypsinization and washed twice with ice-cold PBS (pH 7.4). Then, cells are incubated in dark with 0.5 ml of Annexin V-FITC/PI solution for 30 min in dark at room temperature according to manufacturer protocol. After staining, cells are injected via ACEA Novocyte™ flowcytometer (ACEA Biosciences Inc., San Diego, CA, USA) and analysed for FITC and PI fluorescent signals using FL1 and FL2 signal detector, respectively […]
events are acquired and positive FITC and/or PI cells are quantified by quadrant analysis and […]

[2] = tested on: DU145 prostate cancer cell line; experiment: Cell cycle analysis (PI flow cytometry); format: cell-based, human; conditions: DU145, 9o at its GI50 concentration, 48h
Description: Concurrently, there is a decline in the % of cells in the G2 phase from 22.20% in control cells to 20.94% in 9o treated cells.
as §1, §2, §3
Cells were maintained in DMEM media supplemented with […] of streptomycin, 100 units/mL of penicillin and 10% of heat-inactivated fetal bovine serum in humidified, 5% (v/v) CO2 atmosphere at 37 °C. After treatment with 9o for 48h, cells (10^5 cells) are collected by trypsinization and washed twice with ice-cold PBS (pH 7.4). Cells are re-suspended in two milliliters of 60% ice-cold ethanol and incubated at 4 °C for 1h for fixation. Fixed cells are washed twice again with PBS (pH 7.4) and re-suspended in 1 mL of PBS containing 50 μg/mL RNAase A and 10 μg/mL propidium iodide (PI). After 20 min of incubation in dark at 37 °C, cells are analyzed for DNA contents using flow cytometry analysis using FL2 (λex/em 535/617 nm) signal detector (ACEA Novocyte™ flowcytometer, ACEA Biosciences Inc., San Diego, CA, USA). For each sample, 12,000 events are acquired. […]

## COc1ccc2c(c1)C(=NNC(=O)COc1cc(-c3nc4ccccc4s3)ccc1OC)C(=O)N2 [Compound 9o, 2-(5-(Benzo[d]thiazol-2-yl)-2-methoxyphenoxy)-N′-(5-methoxy-2-oxoindolin-3-ylidene)acetohydrazide]
[1]
  % early apoptotic cells (Q2–4): 0.28%
  % of cells in the late apoptotic stage (Q2–2): 5.02%
  % of cells in the necrotic stage (Q2–1): 2.63%
  % viable cells (Q2–3): 92.07%
[2]
  %G0/G1: 61.40%
  %G2/M: 20.94%
  %S: 17.66%
  %Sub-G1: 0.41%
